# From ChEMBL document CHEMBL1649192, “Dynamics of malaria drug resistance patterns in the Amazon basin region following changes in Peruvian national treatment policy for uncomplicated malaria” (Antimicrob Agents Chemother, 2009)
# Assays:
# [1] = system: Plasmodium falciparum; experiment: Antimicrobial activity against Plasmodium falciparum harboring NGFSDD genotype after 72 hrs by SYBR green I assay
# [2] = system: Plasmodium falciparum; experiment: Antimicrobial activity against Plasmodium falciparum harboring CVMNT genotype after 72 hrs by SYBR green I assay
# [3] = system: Plasmodium falciparum; experiment: Antimicrobial activity against Plasmodium falciparum harboring SVMNT genotype after 72 hrs by SYBR green I assay
SMILES,IC50 [1] [nM],IC50 [2] [nM],IC50 [3] [nM]
OC(c1cc(C(F)(F)F)nc2c(C(F)(F)F)cccc12)C1CCCCN1 (stereo not drawn) [MEFLOQUINE],21,–,–
C=C[C@H]1CN2CC[C@H]1C[C@H]2[C@H](O)c1ccnc2ccc(OC)cc12 [QUININE],–,66,70
